The source of these data is ChEMBL document CHEMBL1133274 (Bioorg Med Chem Lett, 2000).

Test [1] is filed under the species Homo sapiens. The test is described as follows: Cytotoxicity of compound was determined against Lo Vo colon cancer cells. The settings on record: Cancer cell lines. The format is functional, cell-based.
Test [2] is filed under the species Homo sapiens. Kind of test: Cytotoxicity of compound was determined against Lo Vo colon cancer cells in presence of GUS from Escherichia coli. The format is functional, cell-based. To be noted: Cancer cell lines.

For orientation: IC50 means the point on the concentration scale where inhibition reaches its midpoint. With `O=C(O)[C@@H]1O[C@@H](Oc2ccc(COC(=O)N(CCCl)CCCl)cc2[N+](=O)[O-])[C@@H](O)[C@@H](O)[C@@H]1O`, the figures for the half-maximal inhibitory concentration (IC50) in test [1] and in test [2] were more than 400 µM and 95 µM, respectively.
